US8680073B2, “Stable hyaluronan/steroid formulation” (Genzyme Corporation, priority 2009, dated 2014)

What was measured:
Type in all cases: physicochemical
[1] = Rheology of HA viscosupplement/steroid formulations by heat treatment; conditions: formulations of HARC with the steroid, compared to control without steroid
Experimental: (§1) We conducted various experiments in which a number of steroids, both soluble and insoluble, were mixed with HA-based viscosupplements, and the heat stability of the HA/steroid formulations were evaluated at 121° C. for 30 min (simulated autoclave conditions), to achieve a bioburden inactivation of approximate 30 Fo, where Fo is the total heat applied during the cycle to achieve a desired probable inactivation ratio). Formulations were also evaluated after heating at 80° C. for 24 hours (simulated two year room temperature shelf-life).
Specifically we tested the TAH mixtures with SYNVISC® and hylastan products of Genzyme Corporation, Framingham Mass.^1 The rheological properties of the heat treated SYNVISC®/steroid and hylastan SGL-80/steroid formulations plus their controls are listed in Tables 1a and 1b, respectively, set out below. 1 Synvisc is a gel-like mixture that is made up of hylan A fluid, hylan B gel, and salt water. Hylan A and hylan B are made from a substance called hyaluronan (also known as sodium hyaluronate) from chicken combs.

[2] = pH of HA viscosupplement/steroid formulations by heat treatment
Experimental: as §1
(§2) Compositions retained suitable pH and osmolarity.

[3] = Osmolality of HA viscosupplement/steroid formulations by heat treatment
Experimental: as §1, §2

Row | Change in pH after mixing into the HA-based viscosupplements [2] | Change in osmolality after mixing into the HA-based viscosupplements [3] | SMILES | Effect of the steroid on HARC properties after heat treatment [1]
1 |  |  | CC(=O)OCC(=O)[C@@]1(O)[C@@H](C)C[C@H]2[C@@H]3CCC4=CC(=O)C=C[C@]4(C)[C@@]3(F)[C@@H](O)C[C@@]21C [betamethasone acetate] | interacted with HARC
2 | no significant change | no significant change | CC(C)(C)CC(=O)OCC(=O)[C@@]12OC(C)(C)O[C@@H]1C[C@H]1[C@@H]3CCC4=CC(=O)C=C[C@]4(C)[C@@]3(F)[C@@H](O)C[C@@]12C [TAH, triamcinolone hexacetonide] | behaved to comparably to control formulations having no steroid
3 |  |  | C[C@H]1C[C@H]2[C@@H]3CCC4=CC(=O)C=C[C@]4(C)[C@@]3(F)[C@@H](O)C[C@]2(C)[C@@]1(O)C(=O)COP(=O)(O)O [betamethasone phosphate] | exacerbated degradation of HARC properties after heat treatment
